In patent EP0056458B1, “Nitrosourea derivatives, a process for preparing same and therapeutic compositions” (Tanabe Seiyaku Co., Ltd., priority 1981, dated 1982):
Marks after values point to notes of the source that are not given here.

Experiments:
[1] = Preventive effect against the growth of Ehrlich ascites tumor (method A); assay type: in vivo, mice; conditions: mouse, in vivo, ip; Maximum Tolerated Dose: maximum dose with 100% inhibition of Ehrlich ascites tumor growth without death of mice; dose column in mg/kg/day
Procedure: (§1) (A) Preventive effect against the growth of Ehrlich ascites tumor:
(§2) 10^6 tumor cells of Ehrlich ascites carcinoma were inoculated intraperitoneally into a group of five female mice (ICR mice, body weight: 19-23 g). A test compound was dissolved in a physiological saline solution. (In the case where CCNU was employed as the test compound, said compound was suspended in a physiological saline solution containing 0.1% NIKKOL HCO-60 (trademark; a surface active agent manufactured by Nikko Chemicals Co. Ltd.)) and administered intraperitoneally to the mice. The administration of the test compound was begun 24 hours after the inoculation of the tumor cells and performed once a day for 5 days. The volume of ascites in the treated mice were measured after 7 days of the experiment.

[2] = tested on: Ehrlich ascites carcinoma; assay: as above; assay type: in vivo, mice; conditions: for Therapeutic index: M. T. D./M. E. D.; for inhibition in vivo at 0.19 mg/kg/day: dose 0.19 mg/kg/day i.p. x 5 days; for inhibition in vivo at 0.39 mg/kg/day: dose 0.39 mg/kg/day i.p. x 5 days; for inhibition in vivo at 0.78 mg/kg/day: dose 0.78 mg/kg/day i.p. x 5 days; for inhibition in vivo at 3.12 mg/kg/day: dose 3.12 mg/kg/day i.p. x 5 days; for inhibition in vivo at 12.5 mg/kg/day: dose 12.5 mg/kg/day i.p. x 5 days; for minimal effective dose: minimum effective dose which shows 100% inhibition for the growth of the ascites tumor, dose column in mg/kg/day, read-out: MED; for Toxic: group of five mice; for inhibition in vivo at 6.25 mg/kg/day: dose 6.25 mg/kg/day i.p. x 5 days; for inhibition in vivo at 1.56 mg/kg/day: dose 1.56 mg/kg/day i.p. x 5 days; for inhibition in vivo at 0.097 mg/kg/day: dose 0.097 mg/kg/day i.p. x 5 days; for inhibition in vivo at 0.195 mg/kg/day: dose 0.195 mg/kg/day i.p. x 5 days
Procedure: as §1, §2

tumor = assay: Anti-tumor activity compared with a compound of the invention (no method given); conditions: compared with a respective comparative compound according to the invention
leukemic cells of L-1210 = assay: Effect on the life span of mice implanted with leukemic cells of L-1210 (method B); assay type: in vivo; conditions: for ILS (%): Increase in Life Span; for 60-day survivors: mice survived for 60 days/mice used
Procedure: (B) Effect on the life span of mice implanted with leukemic cells of L-1210:
10^5 leukemic cells of L-1210were inoculated intraperitoneally into a group of four male mice (BDF1 mice, body weight: 19-23 g). A test compound was dissolved in a physiological saline solution and administered intraperitoneally to the mice. The administration of the test compound was begun 24 hours after the inoculation of the leukemic cells and performed once a day for 5 days. The survival days of the treated mice were observed.

[3] = Mus musculus, Ehrlich, ip, 168 h, read-out: Inhibition ratio (%)
[4] = Mus musculus, Ehrlich, ip, 168 h
[5] = dose 25 mg/kg/day i.p. x 5 days
[6] = Mus musculus, Ehrlich, ip, 168 h, dose 50 mg/kg/day i.p. x 5 days, read-out: Inhibition ratio (%)
[7] = dose 100 mg/kg/day i.p. x 5 days
[8] = Mus musculus, Ehrlich, ip, 168 h, dose 25 mg/kg/day i.p. x 5 days, read-out: Inhibition ratio (%)
[9] = dose 50 mg/kg/day i.p. x 5 days
[10] = dose 6.25 mg/kg/day i.p. x 5 days
[11] = dose 12.5 mg/kg/day i.p. x 5 days
[12] = T (treated mice), dose 6.25 mg/kg/day i.p. x 5 days
[13] = T (treated mice), dose 12.5 mg/kg/day i.p. x 5 days
[14] = T (treated mice; figure after the slash is untreated control C), dose 25 mg/kg/day i.p. x 5 days
[15] = dose 3.12 mg/kg/day i.p. x 5 days
[16] = T (treated mice), dose 3.12 mg/kg/day i.p. x 5 days
[17] = dose 1.56 mg/kg/day i.p. x 5 days

SMILES	MTD at 168 h [1]	Therapeutic index [2]	inhibition in vivo at 0.39 mg/kg/day [2, 3]	inhibition in vivo at 0.78 mg/kg/day [2, 3]	inhibition in vivo at 3.12 mg/kg/day [2, 3]	inhibition in vivo at 12.5 mg/kg/day [2, 3]	minimal effective dose [2, 4]	inhibition in vivo at 6.25 mg/kg/day [2, 3]	inhibition in vivo at 1.56 mg/kg/day [2, 3]	inhibition in vivo at 25 mg/kg/day [2, 8]	Toxic [2, 9]	ILS (%) (leukemic cells of L-1210; [10])	ILS (%) (leukemic cells of L-1210; [11])	Mean survival days (T/C) (leukemic cells of L-1210; [12])	Mean survival days (T/C) (leukemic cells of L-1210; [13])	60-day survivors (leukemic cells of L-1210; [10])	60-day survivors (leukemic cells of L-1210; [11])	inhibition in vivo at 0.097 mg/kg/day [2, 3]	inhibition in vivo at 0.195 mg/kg/day [2, 3]	other results
O=NN(CCCl)C(=O)N[C@@H]1O[C@H](CO)[C@@H](O)[C@H](O)[C@H]1O [GANU, 1-(2-chloroethyl)-1-nitroso-3-β-(D-glucopyranosyl)urea, reference compound]	12.5 mg/kg/day	32	100%	100%	100%	100%	0.39 mg/kg/day	–	–	–	–	–	–	–	–	–	–	–	–	inhibition in vivo at 0.09 mg/kg/day ([2]; Mus musculus, Ehrlich, ip, 168 h, dose 0.09 mg/kg/day i.p. x 5 days, read-out: Inhibition ratio (%)): 4.2%; inhibition in vivo at 0.19 mg/kg/day [2, 3]: 79.2%; Toxic [2, 5]: Toxic (5/5)*
O=NN(CCCl)C(=O)NC1CCCCC1 [CCNU, 1-(2-chloroethyl)-1-nitroso-3-cyclohexylurea, reference compound]	–	4	–	–	21.1%	100%	12.5 mg/kg/day	33.3%	–	–	–	–	–	–	–	–	–	–	–	inhibition in vivo at 50 mg/kg/day [2, 6]: 100%; Toxic [2, 7]: Toxic (5/5)*
O=C(NCCCl)N[C@H]1[C@H](O)[C@@H](CO)OC(O)[C@@H]1O (stereo partly drawn) [3 - [3 - (2 - chloroethyl)ureido] - 3 - deoxy - D - glucopyranose]	–	–	–	–	–	–	–	–	–	–	–	–	–	–	–	–	–	–	–	anti-tumor activity (tumor): lower anti-tumor activity
C#CCN(C(=O)N(CCCl)N=O)[C@@H]1[C@@H](O)[C@@H](OC)O[C@H](CO)[C@H]1O [Compound 5, 1 - (2 - chloroethyl) - 1 - nitroso - 3 - propargyl - 3 - (methyl 3 - deoxy - a - D - glucopyranosid - 3 - yl)urea]	25 mg/kg/day	32	35.1%	100%	–	–	0.78 mg/kg/day	100%	100%	100%	Toxic (1/5)*	–	–	–	–	–	–	–	–	–
CCCCN(C(=O)N(CCCl)N=O)[C@@H]1[C@@H](O)[C@@H](OC)O[C@H](CO)[C@H]1O [Compound 1, 1 - (2 - chloroethyl) - 1 - nitroso - 3 - n - butyl - 3 - (methyl 3 - deoxy - a - D - glucopyranosid - 3 - yl)urea]	50 mg/kg/day	64	59.5%	100%	100%	100%	0.78 mg/kg/day	–	–	–	–	111.3%	>745.1%	15.0/7.1 days	>60.0/7.1 days	0/4	4/4	–	–	inhibition in vivo at 0.19 mg/kg/day [2, 3]: 14.3%; inhibition in vivo at 50 mg/kg/day [2, 6]: 100%; Toxic [2, 7]: Toxic (4/5)*; ILS (%) (leukemic cells of L-1210; [5]): >745.1%; Mean survival days (T/C) (leukemic cells of L-1210; [14]): >60.0/7.1 days; 60-day survivors (leukemic cells of L-1210; [5]): 4/4
COCCN(C(=O)N(CCCl)N=O)[C@@H]1[C@@H](O)[C@@H](OC)O[C@H](CO)[C@H]1O [Compound 6, 1 - (2 - chloroethyl) - 1 - nitroso - 3 - (2 - methoxyethyl) - 3 - (methyl 3 - deoxy - a - D - glucopyranosid - 3 - yl)urea]	25 mg/kg/day	128	100%	–	–	–	0.195 mg/kg/day	100%	100%	100%	Toxic (2/5)*	–	–	–	–	–	–	0%	100%	–
C=CCN(C(=O)N(CCCl)N=O)[C@@H]1[C@@H](O)[C@@H](OC)O[C@H](CO)[C@H]1O [Compound 4, 1 - (2 - chloroethyl) -1 - nitroso - 3 - allyl - 3 - (methyl 3 - deoxy - α - D - glucopyranosid - 3 - yl)urea]	25 mg/kg/day	128	100%	–	–	–	0.195 mg/kg/day	100%	100%	100%	Toxic (3/5)*	80.2%	>597.7%	15.5/8.6 days	>60.0/8.6 days	0/4	4/4	29.7%	100%	ILS (%) (leukemic cells of L-1210; [5]): >496.5%; Mean survival days (T/C) (leukemic cells of L-1210; [14]): >51.3/8.6 days; 60-day survivors (leukemic cells of L-1210; [5]): 3/4
CO[C@H]1O[C@H](CO)[C@@H](O)[C@H](N(CC(C)C)C(=O)N(CCCl)N=O)[C@H]1O [Compound 2, 1 - (2 - chloroethyl) - 1 - nitroso - 3 - isobutyl - 3 - (methyl 3 - deoxy - a - D - glucopyranosid - 3 - yl)urea]	25 mg/kg/day	128	100%	–	–	–	0.195 mg/kg/day	100%	100%	100%	Toxic (1/5)*	>597.7%	>597.7%	>60.0/8.6 days	>60.0/8.6 days	4/4	4/4	8.1%	100%	ILS (%) (leukemic cells of L-1210; [15]): 57.0%; Mean survival days (T/C) (leukemic cells of L-1210; [16]): 13.5/8.6 days; 60-day survivors (leukemic cells of L-1210; [15]): 0/4
CO[C@H]1O[C@H](CO)[C@@H](O)[C@H](N(C)C(=O)N(CCCl)N=O)[C@H]1O [Compound 3, 1 - (2 - chloroethyl) - 1 - nitroso - 3 - methyl - 3 - (methyl 3 - deoxy - a - D - glucopyranosid - 3 - yl)urea]	25 mg/kg/day	64	100%	–	–	–	0.39 mg/kg/day	100%	100%	100%	Toxic (1/5)*	>614.3%	>614.3%	>60.0/8.4 days	>60.0/8.4 days	4/4	4/4	2.7%	81.1%	ILS (%) (leukemic cells of L-1210; [17]): 70.2%; ILS (%) (leukemic cells of L-1210; [15]): >361.9%; Mean survival days (T/C) (leukemic cells of L-1210; T (treated mice), dose 1.56 mg/kg/day i.p. x 5 days): 14.3/8.4 days; Mean survival days (T/C) (leukemic cells of L-1210; [16]): >38.8/8.4 days; increase in the average life span (leukemic cells of L-1210; daily dose of 0.26 mg/kg intraperitoneally for five consecutive days): about 30%; 60-day survivors (leukemic cells of L-1210; [17]): 0/4; 60-day survivors (leukemic cells of L-1210; [15]): 2/4
